According to patent US20250221966A1, “RXFP1 AGONISTS” (BRISTOL-MYERS SQUIBB COMPANY, priority 2021, published 2025):

Target: T1, human RXFP1 (Homo sapiens, UniProt Q9HBX9)
T1 construct: expressed in transfected cells
T1 sequence (Q9HBX9 1-757): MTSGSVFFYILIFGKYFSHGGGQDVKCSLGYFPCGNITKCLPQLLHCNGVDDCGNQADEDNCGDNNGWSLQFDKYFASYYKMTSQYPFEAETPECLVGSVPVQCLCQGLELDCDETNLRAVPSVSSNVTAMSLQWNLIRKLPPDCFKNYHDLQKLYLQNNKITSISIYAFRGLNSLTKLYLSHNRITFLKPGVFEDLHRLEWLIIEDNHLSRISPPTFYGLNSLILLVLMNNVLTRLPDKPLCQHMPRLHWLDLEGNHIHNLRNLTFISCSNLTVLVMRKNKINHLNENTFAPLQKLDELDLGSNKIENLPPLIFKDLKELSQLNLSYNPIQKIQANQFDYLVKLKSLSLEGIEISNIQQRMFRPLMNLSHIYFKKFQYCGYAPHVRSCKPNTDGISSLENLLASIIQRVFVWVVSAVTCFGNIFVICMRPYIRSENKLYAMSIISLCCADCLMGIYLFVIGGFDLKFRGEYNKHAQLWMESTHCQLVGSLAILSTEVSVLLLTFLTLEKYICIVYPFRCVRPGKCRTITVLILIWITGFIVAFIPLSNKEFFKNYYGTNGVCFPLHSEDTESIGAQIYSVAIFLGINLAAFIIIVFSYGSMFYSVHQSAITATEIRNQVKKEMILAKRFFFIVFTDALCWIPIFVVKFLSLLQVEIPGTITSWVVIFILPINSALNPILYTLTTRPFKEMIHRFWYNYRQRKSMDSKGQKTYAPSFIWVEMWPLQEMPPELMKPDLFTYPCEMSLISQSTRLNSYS
Experiment: RXFP1 cAMP assay (hRXFP1 HEK293 cAMP assay, HTRF)
Type: cell-based
Conditions: HEK293 cells stably expressing human RXFP1, 30 min at room temperature, read-out: cAMP hRXFP1 HEK293 Assay EC50
In short: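 Potency and activity come from a four-parameter logistic fit of cAMP against compound concentration, tested from 0.010 nM up to 50 μM. The assay uses HEK293 cells stably expressing human RXFP1, incubated 30 min at ambient temperature with phosphodiesterase inhibitor IBMX present.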

| EC50 [µM] | Compound |
| --- | --- |
| 0.06 | COc1ccc(-c2cccn3c(C(=O)OCc4ccccc4)cnc23)cc1C(=O)N[C@@H]1C2CCC(/C2=C/C(F)(F)F)[C@@H]1C(=O)Nc1ccc(F)c(C(F)(F)F)c1 (stereo partly drawn) [compound 315] |
| 0.24 | COc1ccc(C2=NOC3COCC23)cc1C(=O)N[C@H]1[C@@H](C(=O)NCc2ccc(Cl)cc2Cl)[C@H]2CC[C@@H]1/C2=C\C1CC1 (stereo partly drawn) [compound 646] |
| 0.0012 | COc1ccc(C2=NOC3C4CC(C(O)C4O)C23)cc1C(=O)N[C@H]1[C@@H](C(=O)Nc2ccc(F)c(C(F)(F)F)c2)[C@H]2CC[C@@H]1/C2=C\C1CC1 (single isomer, unassigned) [Example 448] |
| 0.0026 | COc1ccc(C2=NOC3(CO)CCC23CO)cc1C(=O)N[C@H]1[C@@H](C(=O)Nc2ccc(F)c(C(F)(F)F)c2)[C@H]2CC[C@@H]1/C2=C\C1CC1 (single isomer, unassigned) [Example 461] |
| 0.0009 | COc1ccc(C2=NOC3CC(C(C)O)CC23)cc1C(=O)N[C@H]1[C@@H](C(=O)Nc2ccc(F)c(C(F)(F)F)c2)[C@H]2CC[C@@H]1/C2=C\C1CC1 (stereo partly drawn) [compound 843] |
| 1.6 | COc1ccc(-c2c(C)noc2C)cc1C(=O)N[C@H]1[C@@H](C(=O)Nc2ccc(F)c(C(F)(F)F)c2)[C@H]2CC[C@@H]1C2=C(C)C [compound 104] |
| 0.0032 | O=C(N[C@H]1[C@@H](C(=O)Nc2ccc(F)c(C(F)(F)F)c2)[C@H]2CC[C@@H]1/C2=C\C1CC1)c1cc(C2=NOC3CC(CO)CC23)cc(F)c1OCC1CC1 (stereo partly drawn) [compound 794] |
| 0.347 | COc1ccc(C2=NOC3COCC23)cc1C(=O)N[C@H]1[C@@H](C(=O)NCc2cc(C)ccc2C(F)(F)F)[C@H]2CC[C@@H]1/C2=C\C1CC1 (stereo partly drawn) [compound 659] |
| 0.011 | COc1ccc(-c2cc(C(O)C(=O)O)ccc2F)cc1C(=O)NC1C2CCC(/C2=C/CCC(C)(C)C)C1C(=O)Nc1ccc(F)c(C(F)(F)F)c1 (stereo not drawn) [compound 354] |
| 0.007 | COc1ccc(-c2cc(C(OC(=O)Nc3ccccc3)C(F)(F)F)ccc2F)cc1C(=O)N[C@@H]1C2CCC(/C2=C/C2CC2)[C@@H]1C(=O)Nc1ccc(F)c(C(F)(F)F)c1 (single isomer, unassigned) [compound 229] |
| 0.0417 | CN(C)c1c(Cl)cc(C2=NOC3COCC23)cc1C(=O)N[C@H]1[C@@H](C(=O)Nc2ccc(F)c(C(F)(F)F)c2)[C@H]2CC[C@@H]1/C2=C\C(F)(F)F (single isomer, unassigned) [compound 556] |
| 0.001 | COc1ccc(-c2cc(C(OC(=O)Nc3ccccc3)C(=O)O)ccc2F)cc1C(=O)N[C@@H]1C2CCC(/C2=C/C(F)(F)F)[C@@H]1C(=O)Nc1ccc(F)c(C(F)(F)F)c1 (stereo partly drawn) [compound 205] |
| 0.049 | COc1ccc(C2=NOC(CC(=O)O)C2)cc1C(=O)N[C@@H]1C2CCC(/C2=C/C2CC2)[C@@H]1C(=O)Nc1ccc(F)c(C(F)(F)F)c1 (stereo partly drawn) [compound 391] |
| 0.19 | COc1ncc(-c2ccc(OC)c(C(=O)N[C@H]3[C@@H](C(=O)Nc4ccc(F)c(C(F)(F)F)c4)[C@H]4CC[C@@H]3C4=C(C)C)c2)cn1 [compound 88] |
| 0.212 | COc1ccc(N2C[C@H](O)CC2=O)cc1C(=O)N[C@H]1[C@@H](C(=O)Nc2ccc(F)c(C(F)(F)F)c2)[C@H]2CC[C@@H]1/C2=C\C1CC1 [compound 639] |
| 0.005 | COc1ccc(C2=NOC3CC(NC(=O)CO)CC23)cc1C(=O)N[C@@H]1C2CCC(/C2=C/C2CC2)[C@@H]1C(=O)Nc1ccc(F)c(C(F)(F)F)c1 (stereo partly drawn) [compound 743] |
| 0.0315 | COc1ccc(C2=NOC3COCC23)cc1C(=O)N[C@H]1[C@@H](C(=O)NC(C)(C)C)[C@H]2CC[C@@H]1/C2=C\C1CC1 (stereo partly drawn) [compound 545] |

| EC50 [µM] | Compound |
| --- | --- |
| 0.0076 | COc1ccc(-c2cc(C3=NOC4COCC34)ccc2F)cc1C(=O)N[C@H]1[C@@H](C(=O)Nc2ccc(F)c(C(F)(F)F)c2)[C@H]2CC[C@@H]1/C2=C\C1CC1 (stereo partly drawn) [compound 911] |
| 0.003 | COc1ccc(C2=NOC3CC(C(C)(C)O)CC23)cc1C(=O)N[C@H]1[C@@H](C(=O)Nc2ccc(F)c(C(F)(F)F)c2)[C@H]2CC[C@@H]1/C2=C\C1CC1 (single isomer, unassigned) [compound 462] |
| 0.004 | COc1ccc(C2=NOC3CC(CO)CC23)cc1C(=O)N[C@H]1[C@@H](C(=O)Nc2ccc(F)c(C(F)(F)F)c2)[C@H]2CC[C@@H]1/C2=C\c1cnc(C)s1 (stereo partly drawn) [compound 804] |
| 0.002 | CNC(=O)C(OC(=O)Nc1ccccc1)c1ccc(F)c(-c2ccc(OC)c(C(=O)N[C@@H]3C4CCC(/C4=C/C4CC4)[C@@H]3C(=O)Nc3ccc(F)c(C(F)(F)F)c3)c2)c1 (stereo partly drawn) [compound 237] |
| 0.002 | COc1ccc(C2=NOC3CC(CO)CC23)cc1C(=O)N[C@H]1[C@@H](C(=O)Nc2ccc(F)c(C(F)(F)F)c2)[C@H]2CC[C@@H]1/C2=C\C1CC1 (stereo partly drawn) [Example 429, (1R,2S,3R,4R,Z)-7-(cyclopropylmethylene)-N-(4-fluoro-3-(trifluoromethyl)phenyl)-3-(5-(5-(hydroxymethyl)-3a,5,6,6a-tetrahydro-4H-cyclopenta[d]isoxazol-3-yl)-2-methoxybenzamido)bicyclo[2.2.1]heptane-2-carboxamide] |
| 0.0015 | COc1ccc(C2=NO[C@H]3C[C@H](CO)C[C@@H]23)cc1C(=O)N[C@H]1[C@@H](C(=O)N[C@H](C)C2(C)CC2)[C@H]2CC[C@@H]1/C2=C\CC(O)C(F)(F)F (stereo partly drawn) [compound 815] |
| 0.789 | O=C(N[C@H]1[C@@H](C(=O)Nc2ccc(F)c(C(F)(F)F)c2)[C@H]2CC[C@@H]1/C2=C\C1CC1)c1cc(C2=NOC3CC(CO)CC23)ccc1F (single isomer, unassigned) [compound 692] |
| 0.0708 | CC[C@@H](NC(=O)[C@@H]1[C@H](NC(=O)c2cc(C3=NOC4COCC34)ccc2OC)[C@@H]2CC[C@H]1/C2=C/C1CC1)C1CCC1 (stereo partly drawn) [Example 578] |
| 0.011 | COc1ccc(-c2cc([C@@H](C)O)on2)cc1C(=O)N[C@H]1[C@@H](C(=O)Nc2ccc(F)c(C(F)(F)F)c2)[C@H]2CC[C@@H]1/C2=C\C1CC1 [compound 500] |
| 0.051 | COCCNC(=O)c1ccc(-c2ccc(OC)c(C(=O)N[C@@H]3C4CCC(/C4=C/c4ccccc4)[C@@H]3C(=O)Nc3ccc(F)c(C(F)(F)F)c3)c2)c(F)c1 (stereo partly drawn) [compound 197] |
| 0.33 | COc1ccc(-c2cc(-c3nnn[nH]3)ccc2F)cc1C(=O)N[C@@H]1C2CCC(C2=C(C)C)[C@@H]1C(=O)Nc1ccc(F)c(C(F)(F)F)c1 (stereo partly drawn) [Example 108] |
| 1.36 | COc1ccc(C2=NC[C@@H]3CCCN23)cc1C(=O)N[C@H]1[C@@H](C(=O)Nc2ccc(F)c(C(F)(F)F)c2)[C@H]2CC[C@@H]1/C2=C\C1CC1 [compound 708] |
| 0.081 | COc1ccc(-c2ccc3c(C(=O)OCc4ccccc4)cnn3c2)cc1C(=O)N[C@@H]1C2CCC(/C2=C/C(F)(F)F)[C@@H]1C(=O)Nc1ccc(F)c(C(F)(F)F)c1 (stereo partly drawn) [compound 316] |
| 0.011 | COc1ccc(-c2cc(C(O)C(=O)O)ccc2F)cc1C(=O)NC1C2CCC(/C2=C/C2CC(F)(F)C2)C1C(=O)Nc1ccc(F)c(C(F)(F)F)c1 (stereo not drawn) [compound 353] |
| 0.451 | COc1ccc(C2CCCN2C(=O)C(C)(C)O)cc1C(=O)N[C@@H]1C2CCC(C2=CC2CC2)[C@@H]1C(=O)Nc1ccc(F)c(C(F)(F)F)c1 (stereo partly drawn) [compound 671] |
| 0.003 | COc1ccc(-c2cc(C(OC(=O)Nc3ccc(Cl)cc3)C(F)(F)F)ccc2F)cc1C(=O)N[C@@H]1C2CCC(/C2=C/C2CC2)[C@@H]1C(=O)Nc1ccc(F)c(C(F)(F)F)c1 (stereo partly drawn) [compound 227] |
